Patent US20160113888A1, “PHARMACEUTICAL COMPOSITION FOR TREATMENT OF CANCER” (NATIONAL INSTITUTE OF ADVANCED INDUSTRIAL SCIENCE AND …, priority 2013, published 2016)

What was measured:
[1] = test system: cyclin-E1; test: Western blotting of cyclin-E1 in TIG-1; assay type: cell-based, human; details: normal cells (TIG-1), FIG. 10B
Protocol: (§1) In order to investigate the cytotoxicity action mechanism of triethylene glycol, human osteosarcoma cells (U2OS) and normal human fibroblasts (TIG-1) were each treated with AshLe-WEX or triethylene glycol (TEG), and the expression of cancer-inhibiting proteins p53 and pRB was examined by SDS-PAGE and Western blotting. Treatment with AshLe-WEX or triethylene glycol (TEG) was conducted by adding AshLe-WEX (final concentration: 0.5%) or triethylene glycol (final concentration: 0.5%, 1.0%, or 2.0%) to a medium for culturing cells and culturing for 48 hours. […] Numbers 1-5 in the bar charts of the expression level in the lower half of FIG. 10A correspond to numbers 1-5 of the lanes in the photo images in the upper half of FIG. 10A. […] It was found based on the proportion of phosphorylated-p53/p53 that phosphorylation rate increased in cells treated with AshLe-WEX or triethylene glycol by 30% to 40%, as compared with the control group. […] The proportion of phosphorylated-pRB/RB decreased from about 0.5 in control cells to about 0.3 in cells treated with triethylene glycol ([…]) while it increased by about 20% in normal cells in contrast.
(§2) In parallel with the above, the expression levels of cyclin-B1, -D1, and -E1 and CDK-2, -4, and -6 were examined. […] On the other hand, the tendency regarding the expression levels for cyclin-D1 was the opposite of that for cyclin-B1. […]

[2] = test system: pRB; test: Western blotting of pRB in TIG-1; assay type: cell-based, human; details: normal cells (TIG-1), vs control
Source text: (§3) In order to investigate the cytotoxicity action mechanism of triethylene glycol, human osteosarcoma cells (U2OS) and normal human fibroblasts (TIG-1) were each treated with […] or triethylene glycol (TEG), and the expression of cancer-inhibiting proteins p53 and pRB was examined by SDS-PAGE and Western blotting. […] Numbers 1-5 in the bar charts of the expression level in the lower half of FIG. 10A correspond to numbers 1-5 of the lanes in the photo images in the upper half of FIG. 10A.

[3] = test system: IMR32 neuroblastoma cells; test: Differentiation induction assay of neuroblastoma cells; assay type: cell-based; details: 0.5%, FIG. 16
Protocol: Next, effects on IMR32 neuroblastoma cells treated with […] or triethylene glycol were examined. Differentiation of neuroblastoma cells was induced by treating the neuroblastoma cells with 100 μmol of hydrogen peroxide for 2 to 3 hours and then culturing the cells in a medium containing […] or triethylene glycol (final concentration: 0.5%). As control groups, a group of cells that had been treated with hydrogen peroxide in the above manner and then cultured in a medium containing neither […] nor triethylene glycol and a group of cells that no hydrogen peroxide treatment was conducted and cultured in a medium containing neither […] nor triethylene glycol without hydrogen peroxide treatment were prepared.

[4] = test system: p53; test: Western blotting of p53 in U2OS; assay type: cell-based, human
Source text: as §3

[5] = test system: Keap1; test: Western blotting of Keap1 expression; assay type: cell-based; details: human lung cancer cells (A549), FIG. 13
[6] = test system: normal human fibroblasts (TIG-1); test: Cytotoxicity assay using MTT, TIG-1; assay type: cell-based; details: TIG-1, FIG. 5
Protocol: (§4) Human osteosarcoma cells (U2OS) were cultured in a humidified incubator (37° C., 5% CO2) using a medium in which Dulbecco's modified Eagle's medium (DMEM, Invitrogen) is added with 10% bovine fetal serum. The cells were cultured to become 40% to 60% confluent and treated with AshLe-WEX (final concentration: 1%; 200 μg/mL) and the 1st and 2nd fractions thereof (AshLe-WEX-F1 and F2), respectively. The cells were treated over about 48 hours during culture at 37° C.
(§5) AshLe-WEX and the fractions thereof were evaluated in terms of cytotoxicity by assay using MTT. After the above treatment, MTT (0.5 mg/mL) was added to each cell culture medium, followed by incubation for 4 hours. Next, the medium containing MTT was removed and 100 μL of DMSO was added to each well to completely dissolve formazan crystals. Absorbance was detected at 550 nm using a spectrophotometer (Wallac ARVO SX).
(§6) Cytotoxicity of triethylene glycol to human osteosarcoma cells (U2OS) and normal human fibroblasts (TIG-1) was tested in the manner described in item 5 above. […] Further, cell cycle analysis was conducted using human osteosarcoma cells (U2OS).

[7] = test system: cyclin-D1; test: Western blotting of cyclin-D1 in TIG-1; assay type: cell-based, human; details: normal cells (TIG-1), FIG. 10B
Protocol: as §1, §2

[8] = test system: p53; test: Western blotting of p53 in TIG-1; assay type: cell-based, human; details: normal cells (TIG-1)
Source text: as §3

[9] = test system: MMP-3; test: Expression level of MMP-3; assay type: cell-based, human; details: A549, 48 hours, AshLe-WEX 0.5% or TEG 0.5%, 1.0% or 2.0%, FIG. 14
Source text: (§7) In order to examine the antimetastatic activity mechanism of […] and triethylene glycol, the expression levels of matrix metalloproteases (MMP-9, MMP-3, and MMP-2) were examined. Human lung cancer cells (A549) were used for examination. […] This effect was not observed for MMP-2.

[10] = test system: cyclin-B1; test: Western blotting of cyclin-B1 in TIG-1; assay type: cell-based, human; details: normal cells (TIG-1), vs control, FIG. 10B
Source text: as §3, with “10A. […] In parallel with the above, the expression levels of cyclin-B1, -D1, and -E1 and CDK-2, -4, and -6 were examined. […] On the other hand, the tendency regarding the expression levels for cyclin-D1 was the opposite of that for cyclin-B1. In the case of treatment with triethylene glycol, the expression level of cyclin-D1 increased in cancer cells but decreased in normal cells. The expression level of cyclin-E1 increased in both cancer cells and normal cells. The expression level of CDK-4 decreased in normal cells.” for “10A.”

[11] = test system: HT1080 cells (human fibrosarcoma cells); test: In vivo tumor metastasis assay, HT1080 tail vein injection; design: species or system Balb/c nude mice
Protocol: In vivo antitumor assay of […] and triethylene glycol was conducted using subcutaneous xenograft and tail vein metastasis model mice produced with the use of HT1080 cells from an invasive tumor with high lung metastasis (human fibrosarcoma cells, obtained from the JCRB Cell Bank). […] This administration treatment was started on day 8 after injection of HT1080 cells and repeated 12 times in total at intervals of two days. […] This assay was repeated twice using three mice for each group.

[12] = test system: p21; test: Western blotting of p21 in TIG-1; assay type: cell-based, human; details: normal cells (TIG-1), 48 hours, vs control, FIG. 10A
Source text: as §3

[13] = test system: pRB; test: Immunohistochemistry of pRB phosphorylation in U2OS; assay type: cell-based, human; details: cancer cells (U2OS), 0.5%, 48 hours, FIG. 11
Protocol: (§8) Immunohistochemistry was conducted for visualizing the degree of phosphorylation of p53 and pRB in human osteosarcoma cells (U2OS) and normal human fibroblasts (TIG-1) treated with […] or triethylene glycol. Treatment with […] or triethylene glycol was conducted by adding […] or triethylene glycol to a medium such that a final concentration becomes 0.5% and culturing the cells in each medium for 48 hours. The cells were stained with an anti-p53 antibody (DO-1) and an anti-pRB antibody ([…]). Immunostaining was visualized using an Alexa-488- or Alexa-594-labeled secondary antibody. Regarding pRB, which is a downstream effector of a cyclin-CDK complex, the degree of phosphorylation decreased in cancer cells treated with […] or triethylene glycol but increased in normal cells treated with […] or triethylene glycol (FIG. 11).

[14] = test system: cyclin-B1; test: Western blotting of cyclin-B1 in U2OS; assay type: cell-based, human; details: cancer cells (U2OS), FIG. 10B
Source text: as §3, with “10A. […] In parallel with the above, the expression levels of cyclin-B1, -D1, and -E1 and CDK-2, -4, and -6 were examined. […] On the other hand, the tendency regarding the expression levels for cyclin-D1 was the opposite of that for cyclin-B1. In the case of treatment with triethylene glycol, the expression level of cyclin-D1 increased in cancer cells but decreased in normal cells. The expression level of cyclin-E1 increased in both cancer cells and normal cells. The expression level of CDK-4 decreased in normal cells.” for “10A.”

[15] = test system: human osteosarcoma cells (U2OS); test: Cell cycle analysis; assay type: cell-based; details: FIG. 6
Protocol: as §6

[16] = test system: pRB; test: Western blotting of pRB in U2OS; assay type: cell-based, human
Source text: as §3

[17] = test system: human osteosarcoma cells (U2OS); test: Cytotoxicity assay using MTT, U2OS; assay type: cell-based; details: FIG. 5
Protocol: as §4, §5, §6

[18] = test system: MMP-2; test: Expression level of MMP-2; assay type: cell-based, human; details: A549, 48 hours, AshLe-WEX 0.5% or TEG 0.5%, 1.0% or 2.0%, FIG. 14
Source text: as §7

[19] = test system: CDK-4; test: Western blotting of CDK-4 in TIG-1; assay type: cell-based, human; details: normal cells (TIG-1), FIG. 10B
Protocol: as §1, §2

[20] = test system: cyclin-D1; test: Western blotting of cyclin-D1 in U2OS; assay type: cell-based, human; details: cancer cells (U2OS), FIG. 10B
Protocol: as §1, §2

[21] = test system: cyclin-E1; test: Western blotting of cyclin-E1 in U2OS; assay type: cell-based, human; details: cancer cells (U2OS), FIG. 10B
Protocol: as §1, §2

[22] = test system: MMP-9; test: Expression level of MMP-9; assay type: cell-based, human; details: A549, 48 hours, AshLe-WEX 0.5% or TEG 0.5%, 1.0% or 2.0%, FIG. 14
Source text: as §7

[23] = test system: pRB; test: Immunohistochemistry of pRB phosphorylation in TIG-1; assay type: cell-based, human; details: normal cells (TIG-1), 0.5%, 48 hours, FIG. 11
Protocol: as §8

[24] = test system: HT1080 cells; test: In vitro Matrigel invasion assay; assay type: cell-based, human; details: FIG. 9
[25] = test system: HT1080 cells (human fibrosarcoma cells); test: In vivo antitumor assay, HT1080 subcutaneous xenograft; design: species or system Balb/c nude mice; details: oral administration, 250 μL of 5% triethylene glycol with 2% carboxymethyl cellulose, 12 times at intervals of two days, FIG. 7
Protocol: In vivo antitumor assay of AshLe-WEX and triethylene glycol was conducted using subcutaneous xenograft and tail vein metastasis model mice produced with the use of HT1080 cells from an invasive tumor with high lung metastasis (human fibrosarcoma cells, obtained from the JCRB Cell Bank).
HT1080 cells (6×10^6 cells in 0.2 mL of growth medium) were subcutaneously injected into Balb/c nude mice (4-week-old female mice purchased from CLEA Japan, Inc.) at two sites per mouse, and an equivalent amount of the same was injected into the tail vein of each mouse. 2% carboxymethyl cellulose was administered with feed to a control group. A mixture containing AshLe-WEX (100-250 mg/kg body weight/administration) and 2% carboxymethyl cellulose was administered with feed to an AshLe-WEX group. A TEG group was given a 5% triethylene glycol aqueous solution via oral administration (at a dose per administration of 250 μL of a preparation of 5% triethylene glycol mixed with 2% carboxymethyl cellulose) or intraperitoneal injection (at a dose per administration of 100 μL of 5% triethylene glycol). […] For metastasis assay, each mouse was euthanized by cervical dislocation 5 weeks after tail vein injection, the lung was fixed with 4% formaldehyde, and the number of tumor colonies was counted. […]

[26] = test system: glioblastoma cells (C6 Glioma cells); test: Differentiation induction assay of glioblastoma cells; assay type: cell-based; details: 0.6%, 48 hours
Protocol: Differentiation induction of glioblastoma cells and neuroblastoma cells by triethylene glycol was examined. Differentiation of glioblastoma cells was induced by treating the cells with 100 μmol of hydrogen peroxide for 2 to 3 hours and then culturing the cells in a medium containing […] or triethylene glycol (final concentration: 0.6%) for 48 hours. Cells of a control group were treated with hydrogen peroxide in the above manner and then cultured in a medium containing neither […] nor triethylene glycol.

[27] = cancer cells (U2OS), vs control

OCCOCCOCCO [triethylene glycol]
expression level of cyclin-E1 [1]: increased
increase of proportion of phosphorylated-pRB/RB [2]: about 20%
phosphorylated-pRB [2]: increased
cell form (differentiation induction) ([3]; after 100 μmol hydrogen peroxide 2 to 3 hours): neuron-like form
neurofilament protein (NF200) ([3]; after hydrogen peroxide): increase
expression level of p53 ([4]; U2OS, 48 hours, AshLe-WEX 0.5% or TEG 0.5%, 1.0% or 2.0%, vs control, FIG. 10A): increased
phosphorylated-p53 protein ([4]; cancer cells (U2OS), anti-phosphoserine-specific antibody): increased
expression level of Keap1 [5]: increase
toxicity to normal human fibroblasts [6]: substantially no toxicity
expression level of cyclin-D1 [7]: decreased
expression level of p53 ([8]; 48 hours, vs control, FIG. 10A): increased
phosphorylated-p53 protein ([8]; anti-phosphoserine-specific antibody): increased
expression level of MMP-3 [9]: remarkably decreased
expression level of cyclin-B1 [10]: increased
antimetastatic activity ([11]; lung, 5 weeks after tail vein injection, FIG. 8): powerful antimetastatic activity
number of lung tumors ([11]; vs control group, FIG. 8): lower than that of the control group
lung tumor volumes ([11]; vs control group, FIG. 8B): significantly low
expression level of p21 [12]: increased
degree of phosphorylation of pRB (immunohistochemistry) [13]: decreased
expression level of cyclin-B1 [14]: decreased
cell cycle effect [15]: G1 arrest
proportion of phosphorylated-pRB/RB ([16]; cancer cells (U2OS) treated, control cells about 0.5): about 0.3
decrease of proportion of phosphorylated-pRB/RB [16, 27]: about 20%
phosphorylated-pRB [16, 27]: decreased
concentration at which cancer cell growth is inhibited [17]: ≥ 0.5%
decrease of expression level of MMP-2 [18]: not observed
expression level of CDK-4 [19]: decreased
expression level of cyclin-D1 [20]: increased
expression level of cyclin-E1 [21]: increased
expression level of MMP-9 [22]: remarkably decreased
degree of phosphorylation of pRB (immunohistochemistry) [23]: increased
invasion [24]: reduced
tumor growth [25]: effect of tumor growth inhibition was confirmed
cell form (differentiation induction) ([26]; after 100 μmol hydrogen peroxide 2 to 3 hours, FIG. 15A): astrocyte-like form
induction of GFAP (glial cell differentiation marker protein) ([26]; after hydrogen peroxide, FIG. 15B): upregulated
